The values below come from patent publication US8134000B2, “Imidazolyl pyrimidine inhibitor compounds” (Gilead Sciences, Inc., priority 2008, dated 2012).

Bounds are passed on as bounds.

For assay [1], the target named is HDAC 1 (Homo sapiens, UniProt Q13547). Nature of the assay: HDAC 1 inhibition assay with about 3 hours preincubation of enzyme and compound. It is filed as biochemical. Particulars: read-out: HDAC 1 inhibitory activity (IC50 [μM]) (3-hour preincubation). The protocol:
The second assay is similar to the first assay described above, except that preincubation is carried out for about 3 hours after the enzyme is introduced. The test compound was suspended in, and titrated in DMSO. It was then spotted into a 384-well test plate. The enzyme, HDAC 1, was diluted in the same assay buffer as used in the previous assay and added to the pre-spotted compound. The enzyme/compound mix was incubated at room temperature for about 3 hours. The peptide substrate containing a fluorophore/quencher pair was diluted in the assay buffer and added to the compound/enzyme mix initiating the reaction. The reaction incubated at room temperature for 45 minutes. A concentrated developer solution was diluted in the assay buffer, and added to the reaction. The reaction was incubated at room temperature for about 15 minutes and relative fluorescence was read on an instrument reader.

Assay [2] addresses CDK2 (Homo sapiens, UniProt P24941). The experiment in a line: CDK2 inhibition (IC50). Format: biochemical.

Chain of HDAC 1 (Q13547 whole entry, species assumed): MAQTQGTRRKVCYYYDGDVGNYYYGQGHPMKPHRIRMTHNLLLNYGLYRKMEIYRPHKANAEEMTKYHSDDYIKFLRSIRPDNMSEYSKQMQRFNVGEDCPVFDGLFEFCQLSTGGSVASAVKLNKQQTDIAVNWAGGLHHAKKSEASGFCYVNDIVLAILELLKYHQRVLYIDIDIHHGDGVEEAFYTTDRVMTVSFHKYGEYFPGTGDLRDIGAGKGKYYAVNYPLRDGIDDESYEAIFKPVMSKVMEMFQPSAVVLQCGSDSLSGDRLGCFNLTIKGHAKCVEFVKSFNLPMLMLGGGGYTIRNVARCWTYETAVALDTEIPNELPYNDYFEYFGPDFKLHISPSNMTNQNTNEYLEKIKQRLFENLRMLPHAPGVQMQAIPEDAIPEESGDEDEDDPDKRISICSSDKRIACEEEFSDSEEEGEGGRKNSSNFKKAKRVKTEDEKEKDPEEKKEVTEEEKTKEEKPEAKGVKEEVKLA

`Cc1ncc(-c2nc(Nc3ccc(C(=O)Nc4cc(-c5cccs5)ccc4N)s3)ncc2F)n1C(C)C` [Example 17, N-(2-amino-5-(thiophen-2-yl)phenyl)-5-(5-fluoro-4-(1-isopropyl-2-methylimidazol-5-yl)pyrimidin-2-ylamino)thiophene-2-carboxamide]: the IC50 in assay [1] worked out at 0.037 µM; in assay [2], 0.025 µM.
Taken in the same sequence, the figures for `Cc1cc(C(=O)Nc2cc(-c3ccc(F)cc3)ccc2N)sc1Nc1nccc(-c2cnc(C)n2C(C)C)n1` [Example 14, N-(4-amino-4′-fluorobiphenyl-3-yl)-5-(4-(1-isopropyl-2-methylimidazol-5-yl)pyrimidin-2-ylamino)-4-methylthiophene-2-carboxamide] were 0.028 µM and 0.99 µM.
Consider `Cc1ncc(-c2ncnc(Nc3ccc(C(=O)Nc4ccccc4N)cc3)n2)n1C(C)C` [Example 12, N-(2-aminophenyl)-4-(4-(1-isopropyl-2-methylimidazol-5-yl)-1,3,5-triazin-2ylamino)benzamide], for which the results for the IC50 in assay [1] and in assay [2] were 0.153 µM and 0.34 µM, respectively.
On the same counts, the results for `Cc1ncc(-c2ccnc(Nc3ncc(C(=O)Nc4ccccc4N)s3)n2)n1C(C)C` [Example 18, N-(2-aminophenyl)-2-(4-(1-isopropyl-2-methylimidazol-5-yl)pyrimidin-2-ylamino)thiazole-5-carboxamide] are 0.41 µM and 2.1 µM.
`Cc1ncc(-c2ccnc(Nc3ccc(C(=O)Nc4cc(-c5ccc(F)cc5)ccc4N)s3)n2)n1C(C)C` [Example 13, N-(4-amino-4′-fluorobiphenyl-3-yl)-5-(4-(1-isopropyl-2-methylimidazol-5-yl)pyrimidin-2-ylamino)thiophene-2-carboxamide]: the figures for the IC50 in assay [1] and in assay [2] were 0.054 µM and 0.065 µM, respectively.
On the same counts, the results for `Cc1ncc(-c2cnnc(Nc3ccc(C(=O)Nc4ccccc4N)cc3)n2)n1C(C)C` [Example 5, N-(2-aminophenyl)-4-(5-(1-isopropyl-2-methylimidazol-5-yl)-1,2,4-triazin-3-ylamino)benzamide] are 0.423 µM and more than 40 µM.
Taken in the same sequence, the figures for `Cc1ncc(-c2ccnc(Nc3ccc(C(=O)Nc4ccccc4N)cc3)n2)n1C(C)C` [Example 1, N-(2-amino-phenyl)-4-[4-(1-isopropyl-2-methylimidazol-5-yl)-pyrimidin-2-ylamino]-benzamide] were 0.273 µM and 0.03 µM.
For the molecule `Cc1ncc(-c2ccnc(Nc3ncc(C(=O)Nc4cc(-c5ccc(F)cc5)ccc4N)s3)n2)n1C(C)C` [Example 15, N-(4-amino-4′-fluorobiphenyl-3-yl)-2-(4-(1-isopropyl-2-methylimidazol-5-yl)pyrimidin-2-ylamino)thiazole-5-carboxamide], the IC50 was found to be 0.049 µM in assay [1] and 1.04 µM in assay [2].
Consider `Cc1ncc(-c2ccnc(Nc3ccc(C(=O)Nc4cc(F)ccc4N)cc3)n2)n1C(C)C` [Example 4, N-(2-amino-5-fluoro-phenyl)-4-[4-(1-isopropyl-2-methylimidazol-5-yl)-pyrimidin-2-ylamino]-benzamide], for which the IC50 in assay [1] came out at 0.809 µM; in assay [2], 0.02 µM.
With `Cc1ncc(-c2ccnc(Nc3ccc(C(=O)Nc4cc(-c5ccc(F)cc5)ccc4N)cc3)n2)n1C(C)C` [Example 9, N-(4-amino-4′-fluorobiphenyl-3-yl)-4-(4-(1-isopropyl-2-methylimidazol-5-yl)pyrimidin-2-ylamino)benzamide], the concentration for half-maximal inhibition (IC50) in assay [1] came to 0.04 µM; in assay [2] it was 0.027 µM.
Take `Cc1ncc(-c2ccnc(Nc3ncc(C(=O)Nc4cc(-c5cccs5)ccc4N)s3)n2)n1C(C)C` [Example 16, N-(2-amino-5-(thiophen-2-yl)phenyl)-2-(4-(1-isopropyl-2-methylimidazol-5-yl)pyrimidin-2-ylamino)thiazole-5-carboxamide]: the IC50 in assay [1] amounted to 0.032 µM; in assay [2], 2.15 µM.
With `Cc1ncc(-c2ccnc(Nc3ccc(C(=O)NO)cc3)n2)n1C(C)C` [Example 2, N-hydroxy-4-[4-(1-isopropyl-2-methylimidazol-5-yl)-pyrimidin-2-ylamino]-benzamide], the IC50 was found to be 0.241 µM in assay [1] and 0.01 µM in assay [2].
On the same counts, the results for `Cc1ncc(-c2cnnc(Nc3ccc(C(=O)Nc4cc(-c5cccs5)ccc4N)cc3)n2)n1C(C)C` [Example 7, N-(2-amino-5-(thiophen-2-yl)phenyl)-4-(5-(1-isopropyl-2-methylimidazol-5-yl)-1,2,4-triazin-3-ylamino)benzamide] are 0.03 µM and more than 40 µM.
Taken in the same sequence, the figures for `Cc1ncc(-c2ccnc(Nc3ccc(C(=O)Nc4ccccc4N)s3)n2)n1C(C)C` [Example 11, N-(2-aminophenyl)-5-(4-(1-isopropyl-2-methylimidazol-5-yl)pyrimidin-2-ylamino)thiophene-2-carboxamide] were 4.37 µM and 0.012 µM.
As for `Cc1ncc(-c2ccnc(Nc3ccc(C(=O)NO)s3)n2)n1C(C)C` [Example 8, N-hydroxy-5-(4-(1-isopropyl-2-methylimidazol-5-yl)pyrimidin-2-ylamino)thiophene-2-carboxamide], the IC50 came to 0.656 µM in assay [1] and 0.002 µM in assay [2].
For `Cc1ncc(-c2ccnc(Nc3ccc(C(=O)Nc4cc(-c5cccs5)ccc4N)cc3)n2)n1C(C)C` [Example 3, N-(2-amino-5-thiophen-2-yl-phenyl)-4-[4-(1-isopropyl-2-methylimidazol-5-yl)-pyrimidin-2-ylamino]-benzamide], the IC50 was determined as 0.019 µM in assay [1] and 0.04 µM in assay [2].
Taken in the same sequence, the figures for `Cc1ncc(-c2ccnc(Nc3ccc(C(=O)Nc4cc(C(F)(F)F)ccc4N)cc3)n2)n1C(C)C` [Example 6, N-(2-amino-5-(trifluoromethyl)phenyl)-4-(4-(1-isopropyl-2-methylimidazol-5-yl)pyrimidin-2-ylamino)benzamide] were more than 10 µM and 0.01 µM.
Taken in the same sequence, the figures for `Cc1ncc(-c2ccnc(Nc3ccc(C(=O)Nc4cc(-c5cccs5)ccc4N)s3)n2)n1C(C)C` [Example 10, N-(2-amino-5-(thiophen-2-yl)phenyl)-5-(4-(1-isopropyl-2-methylimidazol-5-yl)pyrimidin-2-ylamino)thiophene-2-carboxamide] were 0.034 µM and 0.026 µM.

Usually IC50 stands for the concentration at which inhibition is half-maximal.
